Assay results taken from patent US7855228B2, “Antibiotics targeting MreB” (The Board of Trustees of the Leland Stamford Junior …, priority 2005, dated 2010).
Read-outs that look alike come from different tables or passages of the source.

Assays:
[1] = biological target: T1, MreB-GFP fusion protein (Escherichia coli, UniProt P0A9X4); experiment: MreB helical structures in vivo (MreB-GFP); type: cell-based, E. coli; details: 10 μg/ml
T1 construct: expressed in transfected cells; host or cells: E. coli JM109 carrying pMreB1-GFP (native mreB promoter)
T1 sequence (P0A9X4 whole entry, the tested form may be a part): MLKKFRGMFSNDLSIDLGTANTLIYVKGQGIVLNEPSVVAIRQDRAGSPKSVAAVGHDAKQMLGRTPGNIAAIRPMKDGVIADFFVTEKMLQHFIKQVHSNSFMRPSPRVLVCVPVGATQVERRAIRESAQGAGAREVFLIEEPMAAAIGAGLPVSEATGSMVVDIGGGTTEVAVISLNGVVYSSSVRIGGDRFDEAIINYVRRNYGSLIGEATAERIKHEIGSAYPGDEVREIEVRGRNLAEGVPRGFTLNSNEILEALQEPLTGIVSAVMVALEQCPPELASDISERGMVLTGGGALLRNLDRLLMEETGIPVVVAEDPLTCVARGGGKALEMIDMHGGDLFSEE
Method: FIG. 11. In vivo effects of A22. Exponentially growing JM109/pMreB1-GFP cells were treated with 10 μg/ml of A22, and changes in cell shape and GFP fluorescence were observed. (a, b) no treatment; (c, d) 30 min after A22 treatment; (e, f) 60 min after A22 treatment; (g, h) 120 min after A22 treatment.
It was recently shown that the MreB forms helical structures in E. coli as well as B. subtilis. […] In rounded cells, MreB-GFP appeared as discrete dots located close to the cell surface (FIGS. 11e-11h), which may be the result of aggregation of MreB-GFP protein de-polymerized by A22.
Construction of a mreB-gfp fusion plasmid A DNA fragment encoding the wild-type mreB gene was PCR-amplified from pMreB1 with primers (SEQ ID NO:5) 5′-[…]-3′ and (SEQ ID NO:6) 5′-[…]-3′. After cutting with Xba I and Nhe I, the PCR-generated DNA fragments were ligated to an XbaI-NheI-cut gfp vector pQIB-T7-GFP (Qbiogene Inc., Irvine, Calif., USA), resulting in an mreB-gfp translational fusion. From the resulting plasmid, an Aor51HI-HindIII fragment encoding the C-terminal portion of MreB fused with GFP was isolated and used to replace the Aor51HI-HindIII fragment of pMreB1, resulting in a plasmid pMreB1-GFP that expresses the MreB-GFP fusion protein from the native mreB promoter. […]

[2] = test system: S. aureus subsp. aureus NBRC15035; experiment: Determination of minimum inhibitory concentration (MIC); type: cell-based, Staphylococcus aureus; details: Staphylococcus aureus, read-out: MIC S. aureus
Summary of the method: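 Two-fold serial agar dilution on L agar and also on Mueller Hinton agar (pH 7.3); 10 µl of stationary-phase culture diluted in 0.85% NaCl to 10^6 cells/ml spotted per plate. MIC taken as lowest concentration inhibiting growth.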

[3] = test system: Caulobacter DNA replication; experiment: Analysis of DNA replication (32P-labeled dGTP incorporation, DNA-content FACS); type: cell-based, Caulobacter crescentus
Description: We first examined the incorporation of radiolabeled dGTP into DNA, which linearly correlates with the rate of DNA replication. […] To assess the effect of A22 on DNA replication during the cell cycle, the radiolabeled nucleotide incorporation assay was repeated using synchronized cultures at different points in the cell cycle. Untreated cells display a dramatic rise in radioactivity levels characteristic of DNA replication initiation at the swarmer-to-stalked cell transition. This rise in radioactivity levels was also observed in A22-treated cells (FIG. 6A).
Finally, we examined the DNA content of A22-treated cells by FACS.
Analysis of DNA Replication. DNA replication was assessed by incorporation of 32P-labeled dGTP) or chromomycin-stained DNA-content FACS analysis as described previously.

[4] = test system: S. typhimurium; experiment: Induction of spherical cells; type: cell-based
Description: (§1) A22 was effective against Gram-negative rod-shaped bacteria.

[5] = test system: B. subtilis; experiment: Induction of spherical cells; type: cell-based
Description: as §1

[6] = test system: P. putida; experiment: Induction of spherical cells; type: cell-based
Description: as §1

Structure (SMILES): N=C(N)SCc1ccc(Cl)c(Cl)c1 [Compound 1, S-(3,4-dichlorobenzyl)isothiourea]
- MreB-GFP dots and bands (helical structures) ([1]; 30-minute treatment, JM109 cells): fluorescent dots and bands disappeared
- Cell shape of MreB-GFP expressing JM109 cells ([1]; after 120 minutes): almost spherical
- MIC ([2]; NBRC15035, Example 2, methods as in Example 1): > 100 µg/mL
- MIC ([2]; NBRC15035, Table 1, NBRC15035): > 100 µg/mL
- Incorporation of radiolabeled dGTP, asynchronous cultures [3]: does not interfere with bulk DNA synthesis
- Incorporation of radiolabeled dGTP, synchronized cultures (replication initiation) ([3]; 10 μg/ml A22 or 5 mg/ml HU): slightly delayed replication initiation
- DNA content by FACS ([3]; 10 μg/ml, 8 hr): predominantly contained cells with two chromosomes
- Induction of spherical cells in S. typhimurium [4]: induced spherical cells
- Induction of spherical cells in B. subtilis [5]: did not
- Induction of spherical cells in P. putida [6]: induced spherical cells
